Laboratory results reported in patent EP4603105A1, “PHARMACEUTICAL COMPOSITION CONTAINING CYCLIC COMPOUND HAVING SELECTIVE KRAS INHIBITORY EFFECT AGAINST HRAS AND NRAS” (CHUGAI SEIYAKU KABUSHIKI KAISHA, priority 2022, dated 2024).
pIC50: −log10 of the molar value. Like-named read-outs stand apart in the source and are kept apart here. *1 amine or outer side, *2 acyl side, *3 side chain or, on linkers, in order; H or OH if unused. Where a SMILES comes first, the peptide text is derived from it. Bridges are numbered along the chain shown (N, C = ends). [ ]: non-standard residue; d: D form. The star is where a group is joined. hPhe(3-Cl-4-CF3) = N[C@@H](CCc1ccc(C(F)(F)F)c(Cl)c1)C(=O)O; X21 = CCCN([C@H](C(=O)[*:2])C1CCCC1)[*:1]; NMeGly(cPent) = CN[C@H](C(=O)O)C1CCCC1; NMeD = CN[C@@H](CC(=O)O)C(=O)O; NMeL = CN[C@@H](CC(C)C)C(=O)O; Morpholide = C1CN(*)CCO1; NMeA = CN[C@@H](C)C(=O)O; Ac5c = NC1(C(=O)O)CCCC1; Aze = O=C(O)[C@@H]1CCN1; Sar = CNCC(=O)O

Key:
[1] = target: GDP-bound NRAS wild-type protein (Homo sapiens, UniProt P01111); assay: Binding to NRAS by surface plasmon resonance (SPR), KD and KD ratio to KRAS
Method in brief: (§1)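 GDP-bound biotin-Avi RAS captured at ~100–300 RU, 30°C, pH 7.4 HBS containing 10 µM GDP, 10 mM MgCl2, 1 mM DTT, 0.01% Tween 20 and 4% DMSO. KD by 1:1 fitting.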

HRAS wild-type protein = HRAS wild-type protein (Homo sapiens, UniProt P01112); assay: Binding to HRAS by surface plasmon resonance (SPR), KD and KD ratio to KRAS
Method in brief: as §1

[2] = system: human lung cancer strain NCI-H441; assay type: cell-based
Method in brief: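 Readout: […] after the ATP-based reagent. Compound: serial dilutions in dimethyl sulfoxide.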

[3] = ratio of the KD value with respect to GDP-bound NRAS wild-type protein to the KD value with respect to KRAS
[4] = ratio of the KD value with respect to HRAS wild-type protein to the KD value with respect to KRAS
[5] = ratio of KD for GDP-bound NRAS wild-type protein to KD for KRAS
[6] = ratio of KD for HRAS wild-type protein to KD for KRAS
[7] = NCI-H441 cells, 4 days, CellTiter-Glo, read-out: NCl-H441 IC50

Chain of GDP-bound NRAS wild-type protein (P01111 whole entry): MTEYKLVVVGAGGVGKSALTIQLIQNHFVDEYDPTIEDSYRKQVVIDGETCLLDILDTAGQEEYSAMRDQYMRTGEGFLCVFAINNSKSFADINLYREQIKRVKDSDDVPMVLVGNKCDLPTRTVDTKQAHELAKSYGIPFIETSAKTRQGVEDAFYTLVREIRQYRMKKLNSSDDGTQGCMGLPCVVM
Chain of HRAS wild-type protein (P01112 whole entry): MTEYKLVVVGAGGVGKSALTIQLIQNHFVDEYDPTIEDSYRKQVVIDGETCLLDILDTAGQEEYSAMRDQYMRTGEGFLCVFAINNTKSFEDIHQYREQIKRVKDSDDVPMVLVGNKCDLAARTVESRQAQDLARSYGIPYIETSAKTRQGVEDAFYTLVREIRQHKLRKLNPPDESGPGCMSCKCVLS

Row | Compound | NRAS /KRAS [1, 3] | HRAS /KRAS (HRAS wild-type protein; [4]) | pIC50 [2] | NRAS /KRAS [1, 5] | HRAS /KRAS (HRAS wild-type protein; [6]) | pIC50 [2, 7] | NRAS /KRAS ([1]; ratio of KD value for GDP-bound NRAS wild-type protein to KD value for KRAS (SPR)) | HRAS /KRAS (HRAS wild-type protein; ratio of KD value for HRAS wild-type protein to KD value for KRAS (SPR))
1 | C=CC[C@H]1C(=O)N[C@@H]([C@@H](C)CC)C(=O)N(C)CC(=O)N(C)[C@H]2CCCCN(C2=O)[C@@H](Cc2ccc(C(F)(F)F)cc2)C(=O)N(C)CC(=O)N[C@@H](CCc2cc(F)c(C(F)(F)F)c(F)c2)C(=O)N2C[C@H](OCC)C[C@H]2C(=O)NC2(CCC2)C(=O)N(C)[C@@H](C2CCCC2)C(=O)N(C)[C@H](C(=O)N(C)C)CC(=O)N1C [PP0695] | C (A compound having a KD ratio of 0.1 or more and less than 3 is denoted as C) | C (A compound having a KD ratio of 0.1 or more and less than 3 is denoted as C) | 8.54 |  |  |  |  | 
2 | CCOC[C@H]1C(=O)N[C@@H]([C@@H](C)CC)C(=O)N(C)CC(=O)N(C)[C@H]2C/C=C\CCN(C2=O)[C@@H](Cc2ccc(C(C)=O)cc2)C(=O)N(C)CC(=O)N[C@@H](CCc2ccc(C(F)(F)F)c(OC)c2)C(=O)N2C[C@@H](C)C[C@H]2C(=O)NC2(CC(C)(C)C2)C(=O)N(C)[C@@H](C2CCCC2)C(=O)N(C)[C@H](C(=O)N(C)CC)CC(=O)N1C [PP2703] |  |  |  | AA (a compound having 20 or more is denoted as AA) | A (a compound having 10 or more and less than 20 is denoted as A) | 7.09 |  | 
3 | CCC[C@H]1C(=O)N[C@@H]([C@@H](C)CC)C(=O)N(C)CC(=O)N(C)[C@H]2C/C=C\CCN(C2=O)[C@@H](Cc2ccc(C(F)(F)F)cc2)C(=O)N(C)CC(=O)N[C@@H](CCc2ccc(C3CC3)c(C)c2)C(=O)N2C[C@H](OCC)C[C@H]2C(=O)NC2(CC(C)(C)C2)C(=O)N(C)[C@@H](C2CCCC2)C(=O)N(C)[C@H](C(=O)N(C)C)CC(=O)N1C [PP2855] |  |  |  | A (a compound having 10 or more and less than 20 is denoted as A) | A (a compound having 10 or more and less than 20 is denoted as A) | 7.42 |  | 
4 | CCO[C@@H]1C[C@H]2C(=O)NC3(CC(C)(C)C3)C(=O)N(C)[C@@H](C3CCCC3)C(=O)N(C)[C@H](C(=O)N(C)C)CC(=O)N(C)[C@@H](CC(C)C)C(=O)N[C@@H]([C@@H](C)CC)C(=O)N(C)CC(=O)N(C)[C@H]3C/C=C\CCN(C3=O)[C@@H](Cc3ccc(C(F)(F)F)cc3)C(=O)N(C)CC(=O)N[C@@H](CCc3cc(F)c(Cl)c(F)c3)C(=O)N2C1 [PP1761] |  |  | 8.28 |  |  |  | A (a compound having 10 or more and less than 20 is denoted as A) | A (a compound having 10 or more and less than 20 is denoted as A)
5 | CC[C@H](C)[C@@H]1NC(=O)[C@H](CC2CC2)N(C)C(=O)C[C@@H](C(=O)N(C)C)N(C)C(=O)[C@H](C2CCCC2)N(C)C(=O)C2(CC(C)(C)C2)NC(=O)[C@@H]2C[C@@H](F)CN2C(=O)[C@H](CCc2cc(F)c(C(F)(F)F)c(F)c2)NC(=O)CN(C)C(=O)[C@H](Cc2ccc(C)cc2)N2CC/C=C\C[C@@H](C2=O)N(C)C(=O)CN(C)C1=O [PP2804] |  |  | 8.66 | A (a compound having 10 or more and less than 20 is denoted as A) | A (a compound having 10 or more and less than 20 is denoted as A) |  |  | 
6 | CCO[C@@H]1C[C@H]2C(=O)NC3(CCC3)C(=O)N(C)[C@@H](C3CCCC3)C(=O)N(C)[C@H](C(=O)N(C)C)CC(=O)N(C)[C@@H](C)C(=O)N[C@@H]([C@H](C)CC)C(=O)N(C)CC(=O)N(C)[C@H]3CCCCN(C3=O)[C@@H](Cc3ccc(C(F)(F)F)cc3)C(=O)N(C)CC(=O)N[C@@H](CCc3cc(F)c(C(F)(F)F)c(F)c3)C(=O)N2C1 [PP0730] | C (A compound having a KD ratio of 0.1 or more and less than 3 is denoted as C) | C (A compound having a KD ratio of 0.1 or more and less than 3 is denoted as C) | 7.53 |  |  |  |  | 
7 | CC[C@H](C)[C@@H]1NC(=O)[C@H](CC(C)C)N(C)C(=O)C[C@@H](C(=O)N2CCOCC2)N(C)C(=O)[C@H](C2CCCC2)N(C)C(=O)C2(CCCC2)NC(=O)[C@@H]2[C@@H](O)CCN2C(=O)[C@H](CCc2cc(F)c(C(F)(F)F)c(F)c2)NC(=O)CN(C)C(=O)[C@H](Cc2ccc(C(F)(F)F)cc2)N2CCCCC[C@@H](C2=O)N(C)C(=O)CN(C)C1=O [PP0662] | B (a compound having 3 or more and less than 10 is denoted as B) | B (a compound having 3 or more and less than 10 is denoted as B) | 5.80 |  |  |  |  | 
8 | CCCN1C(=O)[C@@H]2CCN2C(=O)[C@H](C)N(C)C(=O)[C@H]([C@@H](C)CC)NC(=O)[C@H](CC(C)C)N(C)C(=O)C[C@@H](C(=O)N2CCOCC2)N(C)C(=O)[C@H](C2CCCC2)N(C)C(=O)C2(CCCC2)NC(=O)[C@@H]2CCCN2C(=O)[C@H](CCc2ccc(C(F)(F)F)c(Cl)c2)NC(=O)CN(C)C(=O)[C@@H]1C1CCCC1 [PP0054] ([NMeL]I[NMeA][Aze][X21][Sar][hPhe(3-Cl-4-CF3)]P[Ac5c][NMeGly(cPent)][NMeD]-Morpholide; lactam N-11) |  |  |  | C (A compound having a KD ratio of 0.1 or more and less than 3 is denoted as C) | C (A compound having a KD ratio of 0.1 or more and less than 3 is denoted as C) | 7.09 |  | 
